Assay results from US20080214518A1, “Pharmaceutical Composition Comprising an Anti-Bacterial Agent and an Active Ingredient Selected From Carveol, Thymol, Eugenol, Borneol and Carvacrol” (priority 2005, published 2008).
Where two headings read alike, the source gives them in different places.

Columns and labels:
Type in all cases: cell-based
[1] = test system: Staphylococcus epidermidis; assay: Static tests to determine MIC and MBC; details: antibiotic alone, exponential growth phase
Experimental: (§1) The experiment was carried out with several Gram-negative and Gram-positive bacterial strains with different susceptibilities isolated in the hospital environment.
Antibacterial pharmaceutical compositions according to the invention were prepared by mixing amoxicillin at different concentrations with carveol at a sub-inhibitory concentration of 0.3 g per liter of solution or excipient (equivalent to 0.3 mg/ml). The minimal concentration of amoxicillin in combination with carveol 0.3 mg/ml that produced a bactericidal effect was determined. In each case, antibiotic activity was determined either with amoxicillin alone, or with carveol alone, or with the composition of the invention. […]

Escherichia coli = assay: Static tests to determine MIC and MBC; details: antibiotic alone, exponential growth phase
Experimental: as §1
(§2) Antibacterial pharmaceutical compositions according to the invention were prepared by mixing amoxicillin at different concentrations with carveol at a sub-inhibitory concentration of 0.3 g per liter of solution or excipient (equivalent to 0.3 mg/ml). The minimal concentration of amoxicillin in combination with carveol 0.3 mg/ml that produced a bactericidal effect was determined. In each case, antibiotic activity was determined either with amoxicillin alone, or with carveol alone, or with the composition of the invention.
(§3) The experiment was carried out with several resistant bacterial strains isolated in the hospital environment. The antibiotic used was ampicillin, from the beta-lactam family, which is one of the most widely used antibiotics. An antibiotic pharmaceutical composition according to the invention was prepared by mixing ampicillin at different concentrations with carveol at a sub-inhibitory concentration of 0.3 g per liter of solution or excipient. This pharmaceutical composition of the invention was named Ampi-P, for potentiated ampicillin. In each case, antibiotic activity was determined either with ampicillin alone, or with carveol alone, or with the composition of the invention.
(§4) The experiment was carried out with several resistant bacterial strains isolated in the hospital environment. The antibiotic used was cephazolin, from the cephalosporin family, another class of beta-lactams which are among the most widely used antibiotics. An antibiotic pharmaceutical composition according to the invention was prepared by mixing cephazolin at different concentrations with alpha-ionone and beta-ionone at a sub-inhibitory concentration of 0.3 g per liter of solution or excipient. This pharmaceutical composition of the invention was named Cepha-P, for potentiated cephazolin. In each case, antibiotic activity was determined either with cephazolin alone, or with alpha-ionone or beta-ionone alone, or with the composition of the invention.
as §3, with “polymyxin B,” for “ampicillin,”, “peptide” for “beta-lactam”, “oldest” for “most widely used”, “polymyxin B” for “ampicillin”, “Polymix-P,” for “Ampi-P,”, “polymyxin B.” for “ampicillin.”
as §3, with “chloramphenicol,” for “ampicillin,”, “phenicol” for “beta-lactam”, “oldest” for “most widely used”, “chloramphenicol” for “ampicillin”, “Chloram-P,” for “Ampi-P,”, “chloramphenicol.” for “ampicillin.”
(§5) The experiment was carried out with several resistant bacterial strains isolated in the hospital environment. The antibiotic used was chlortetracycline, one of the oldest antibiotics. An antibiotic pharmaceutical composition according to the invention was prepared by mixing chlortetracycline at different concentrations with carveol at a sub-inhibitory concentration of 0.3 g per liter of solution or excipient.

Bacillus subtilis = assay: Static tests to determine MIC and MBC; details: antibiotic alone, exponential growth phase
Experimental: as §1, §2, §3, §4
as §3, with “polymyxin B,” for “ampicillin,”, “peptide” for “beta-lactam”, “oldest” for “most widely used”, “polymyxin B” for “ampicillin”, “Polymix-P,” for “Ampi-P,”, “polymyxin B.” for “ampicillin.”
as §3, with “chloramphenicol,” for “ampicillin,”, “phenicol” for “beta-lactam”, “oldest” for “most widely used”, “chloramphenicol” for “ampicillin”, “Chloram-P,” for “Ampi-P,”, “chloramphenicol.” for “ampicillin.”
as §5

Salmonella typhimurium = assay: Static tests to determine MIC and MBC; details: antibiotic alone, exponential growth phase
Experimental: as §1, §2, §3, §4
as §3, with “polymyxin B,” for “ampicillin,”, “peptide” for “beta-lactam”, “oldest” for “most widely used”, “polymyxin B” for “ampicillin”, “Polymix-P,” for “Ampi-P,”, “polymyxin B.” for “ampicillin.”
as §3, with “chloramphenicol,” for “ampicillin,”, “phenicol” for “beta-lactam”, “oldest” for “most widely used”, “chloramphenicol” for “ampicillin”, “Chloram-P,” for “Ampi-P,”, “chloramphenicol.” for “ampicillin.”
as §5

Staphylococcus aureus = assay: Static tests to determine MIC and MBC; details: Staphylococcus aureus; antibiotic alone; exponential growth phase
Experimental: as §1, §2
as §5, with “excipient. […] In each case, antibiotic activity was determined either with chlortetracycline alone, or with carveol alone, or with the composition of the invention.” for “excipient.”
as §3, with “streptomycin, an important member of” for “ampicillin, from”, “aminoside family” for “beta-lactam family,”, “among” for “one of”, “important” for “widely used”, “streptomycin” for “ampicillin”, “This pharmaceutical composition of the invention was named Ampi-P, for potentiated ampicillin.” left out
as §3, with “erythromycin, an important member of” for “ampicillin, from”, “macrolide family” for “beta-lactam family,”, “among” for “one of”, “important” for “widely used”, “erythromycin” for “ampicillin”, “This pharmaceutical composition of the invention was named Ampi-P, for potentiated ampicillin.” left out

[2] = test system: bacterial strains isolated in the hospital environment; assay: Static MIC/MBC tests, potentiation over all tested strains; details: antibiotic combined with carveol, alpha-ionone or beta-ionone at 0.3 mg/ml
Experimental: as §1, §2
The experiment was carried out with several resistant bacterial strains isolated in the hospital environment. The antibiotic used was ampicillin, from the beta-lactam family, which is one of the most widely used antibiotics. […] In each case, antibiotic activity was determined either with ampicillin alone, or with carveol alone, or with the composition of the invention.
The experiment was carried out with several resistant bacterial strains isolated in the hospital environment. […] In each case, antibiotic activity was determined either with cephazolin alone, or with alpha-ionone or beta-ionone alone, or with the composition of the invention.
The experiment was carried out with several resistant bacterial strains isolated in the hospital environment. […] This pharmaceutical composition of the invention was named Polymix-P, for potentiated polymyxin B. In each case, antibiotic activity was determined either with polymyxin B alone, or with carveol alone, or with the composition of the invention.
The experiment was carried out with several resistant bacterial strains isolated in the hospital environment. […] In each case, antibiotic activity was determined either with chloramphenicol alone, or with carveol alone, or with the composition of the invention. […]

Mycobacterium fleii = assay: Static tests to determine MIC and MBC; details: antibiotic alone, exponential growth phase
[3] = test system: resistant mycobacterial strains isolated in a veterinary environment; assay: Static MIC/MBC tests, potentiation over tested mycobacterial strains; details: antibiotic combined with carvacrol or thymol at 0.3 mg/ml
Mycobacterium fortuitum = assay: Static tests to determine MIC and MBC; details: Mycolicibacterium fortuitum; antibiotic alone; exponential growth phase
[4] = Escherichia coli, read-out: MIC
[5] = Bacillus subtilis, read-out: MIC
[6] = Salmonella enterica, TYPHIMURIUM, read-out: MIC

O=C(N[C@H](CO)[C@H](O)c1ccc([N+](=O)[O-])cc1)C(Cl)Cl [Chloramphenicol, chloramphenicol]
MIC ([1]; Staphylococcus epidermidis, read-out: MIC): > 50 µg/mL | MIC (Escherichia coli; [4]): > 50 µg/mL | MIC (Bacillus subtilis; [5]): > 50 µg/mL | MIC (Salmonella typhimurium; [6]): > 50 µg/mL

CN(C)[C@@H]1C(O)=C(C(N)=O)C(=O)[C@@]2(O)C(O)=C3C(=O)c4c(O)ccc(Cl)c4[C@@](C)(O)[C@H]3C[C@@H]12 [Chlortetracycline, chlortetracycline]
MIC (Staphylococcus aureus): > 50 µg/mL | MIC (Escherichia coli; [4]): > 50 µg/mL | MIC (Bacillus subtilis; [5]): > 50 µg/mL | MIC (Salmonella typhimurium; [6]): > 50 µg/mL

CC[C@H]1OC(=O)[C@H](C)[C@@H](O[C@H]2C[C@@](C)(OC)[C@@H](O)[C@H](C)O2)[C@H](C)[C@@H](O[C@@H]2O[C@H](C)C[C@H](N(C)C)[C@H]2O)[C@](C)(O)C[C@@H](C)C(=O)[C@H](C)[C@@H](O)[C@]1(C)O [Erythromycin, erythromycin]
times lower antibiotic concentration producing bactericidal activity versus antibiotic alone [2]: two to five | MIC (Staphylococcus aureus): > 50 µg/mL | MIC (Escherichia coli; [4]): > 50 µg/mL | MIC (Bacillus subtilis; [5]): > 50 µg/mL | MIC (Salmonella typhimurium; [6]): > 50 µg/mL

NNC(=O)c1ccncc1 [Isoniazide, isoniazide]
MIC (Mycobacterium fleii): > 50 µg/mL | times lower antibiotic concentration producing bactericidal activity versus antibiotic alone [3]: at least 25 times | MIC (Mycobacterium fortuitum): > 50 µg/mL

CO[C@H]1/C=C/O[C@@]2(C)Oc3c(C)c(O)c4c(O)c(c(/C=N/N5CCN(C)CC5)c(O)c4c3C2=O)NC(=O)/C(C)=C\C=C\[C@H](C)[C@H](O)[C@@H](C)[C@@H](O)[C@@H](C)[C@H](OC(C)=O)[C@@H]1C [Rifampicin, rifampicin]
MIC (Mycobacterium fleii): > 75 µg/mL | times lower antibiotic concentration producing bactericidal activity versus antibiotic alone [3]: at least 25 times | MIC (Mycobacterium fortuitum): > 75 µg/mL

[H]/N=C(/N)N[C@H]1[C@H](O)[C@@H](O)[C@H](O[C@@H]2O[C@@H](C)[C@](O)(C=O)[C@H]2O[C@@H]2O[C@@H](CO)[C@H](O)[C@@H](O)[C@@H]2NC)[C@@H](N/C(N)=N\[H])[C@@H]1O [Streptomycin, streptomycin]
times lower antibiotic concentration producing bactericidal activity versus antibiotic alone [2]: at least 10 times | MIC (Staphylococcus aureus): > 50 µg/mL | MIC (Escherichia coli; [4]): > 50 µg/mL | MIC (Bacillus subtilis; [5]): > 50 µg/mL | MIC (Salmonella typhimurium; [6]): > 50 µg/mL

polymyxin B
MIC [1]: >50 µg/mL | MIC (Escherichia coli): >50 µg/mL | MIC (Bacillus subtilis): >50 µg/mL | MIC (Salmonella typhimurium): 25 µg/mL
